Values belong to the compound of their own block, whether it stands above or below them.
Assays:
Assay type in all cases: in vivo, rat
Male Sprague Dawley rats [1] = test: Dural stimulus-induced tactile hyperesthesia of the hindpaw (50% paw withdrawal threshold, von Frey filaments); conditions: administered to the dura; results two hours after treatment; FIG. 4
Experimental: Male Sprague Dawley rats were anesthetized using ketamine/xylazine (80-100 mg/kg, intraperitoneal). The top of the head was shaved using a rodent clipper (Oster Golden A5 w/size 50 blade), and the shaved area was cleaned with betadine and 70% ethanol. Animals were placed into a stereotaxic apparatus (Stoelting Co., #51600) and the body core temperatures of 37° C. were maintained using a heating pad placed below the animals. Within the shaved and cleaned area on the head, a 2 cm incision was made using a scalpel with a #10 blade, and any bleeding was cleaned using sterile cotton swabs. […]
Paw withdrawal thresholds to tactile stimuli were determined in response to probing with calibrated von Frey filaments (Stoelting Co., #58011). […] The 50% paw withdrawal threshold was determined by the non-parametric method of Dixon (Dixon, Ann. Rev. Pharmacol. Toxicol. 20:441-462, 1980; also see, e.g., Chaplan et al., J. Neurosci. Meth. 53:55-63, 1994). […] This “up-down” method was repeated until three changes in behavior were determined. […]
(§1) The 50% paw withdrawal threshold was determined as (10^[Xf+kδ])/10,000, where Xf is the value of the last von Frey filament employed, k is the Dixon value for the positive/negative pattern, and δ is the mean (log) difference between stimuli. […]

Male Sprague Dawley rats [2] = test: Candidate compound effect on tactile hyperesthesia of the hindpaw induced by dural inflammation (IM cocktail)
Experimental: Paw withdrawal thresholds to tactile stimuli were determined in response to probing with calibrated von Frey filaments (Stoelting Co., #58011). The von Frey filaments were applied perpendicularly to the plantar surface of the hindpaw of the animal until it buckled slightly, and were held for three to six seconds. A positive response was indicated by a sharp withdrawal of the paw. The 50% paw withdrawal threshold was determined by the non-parametric method of Dixon (Dixon, Ann. Rev. Pharmacol. Toxicol. 20:441-462, 1980; also see, e.g., Chaplan et al., J. Neurosci. Meth. 53:55-63, 1994). […] This “up-down” method was repeated until three changes in behavior were determined. The pattern of positive and negative responses was tabulated.
The 50% paw withdrawal threshold was determined as (10^[Xf+kδ])/10,000, where Xf is the value of the last von Frey filament employed, k is the Dixon value for the positive/negative pattern, and δ is the mean (log) difference between stimuli. Only naïve animals with baselines of 11 to 15 grams were used in the experiment. Fifteen grams was used as the maximal cut-off. Five days post-migraine surgery, paw withdrawal thresholds were re-tested using the same habituation and von Frey procedure as stated above. Data were converted to percent “antiallodynia” by the following formula: percent antiallodynia=100×(test value−post-treatment baseline value)/(pretreatment baseline value−post-treatment baseline value).
After establishing baseline paw withdrawal thresholds, individual animals were removed from the testing chamber, the cap of the migraine intracranial guide tube was removed, and animals received an injection of either an IM cocktail (1 mM histamine, 1 mM serotonin, 1 mM bradykinin, and 1 mM prostaglandin E2) or vehicle (i.e., control) at 10 μl volume via the intracranial guide tube over a five- to ten-second period. The IM cocktail was made fresh on the day of each experiment. The cap of the intracranial guide tube was replaced, individual animals were placed back into their corresponding testing chamber, and paw withdrawal thresholds were measured at one-hour intervals over a six-hour time course. […] Data were converted to percent “antiallodynia” by the following formula: percent antiallodynia=100×(test value−post-treatment baseline value)/(pretreatment baseline value−post-treatment baseline value).
Rats were anesthetized with ketamine/xylazine (80-100 mg/kg, intraperitoneal) for stereotaxic placement of bilateral cannulae in the RVM. […]

Male Sprague Dawley rats [3] = test: Candidate compound effect on facial tactile hyperesthesia induced by dural inflammation (IM cocktail)
Experimental: In another set of experiments, facial response thresholds of the rats to tactile stimuli were determined. Calibrated von Frey filaments were applied perpendicularly to the midline of the forehead within a 3 mm diameter area just above the plane of the eyes, for six to eight seconds, until the filaments buckled slightly. A positive response was indicated by a sharp withdrawal of the head, which sometimes included an attempt to grasp and/or bite the filament. Special care was taken when applying the filaments to the forehead in order to prevent a positive facial response due to dynamic force and/or deflection of the hairs. The 50% facial response threshold was determined by the non-parametric method of Dixon. […] This “up-down” method was repeated until three changes in behavior were determined. The pattern of positive and negative responses was tabulated.
as §1, with “facial response” for “paw withdrawal”, “stimuli. Only naïve animals with baselines of eight grams were used in the experiment. Eight grams was used as the maximal cut-off.” for “stimuli.”

rats [4] = test: Model for allodynia: continuous drug infusion, then paw withdrawal threshold with von Frey filaments; conditions: continuous infusion (sumatriptan: 24 hour infusion at 0.6 mg/k/day); Appendix A-5
Experimental: We have developed a model to determine the propensity for a compound to induce allodynia upon administration. Briefly, rats are infused continuously with a drug for a specified period of time. After the time, rats are probe with von Frey filaments to determine the paw withdrawal threshold. The compound may be administered for more than 2, 3, 4, 5, 6, 7, 8, 9, 10, 11, 12, 13, 14, 15, 16, 17, 18, 19, 20, 21, 22, 23, or 24 hours.

rats [5] = test: Oral administration of compounds in the migraine model of the invention (tactile allodynia)
Description: Oral delivery was accomplished by using an 18-gauge gavage needle attached to a 1 cc syringe.

Compound: N[C@@H](CCC(=O)N[C@@H](CSN=O)C(=O)NCC(=O)O)C(=O)O [SNOG, s-nitrosylglutathione]
tactile hyperesthesia of the hindpaw (Male Sprague Dawley rats [1]): produced a tactile hyperesthesia effect similar to that induced by administration of the IM cocktail

Compound: CCCCN1CCCCC1C(=O)Nc1c(C)cccc1C (centres unmarked) [bupivacaine]
paw withdrawal threshold versus rats with dural IM cocktail but no compound (Male Sprague Dawley rats [2]; administration in the RVM thirty minutes after IM cocktail, FIG. 9A): increase in paw withdrawal threshold | paw withdrawal threshold versus rats with dural IM cocktail but no compound (Male Sprague Dawley rats [2]; administration in the RVM two hours after IM cocktail, FIG. 9B): significant increase in test animal paw withdrawal threshold | facial response threshold versus rats with dural IM cocktail but no compound (Male Sprague Dawley rats [3]; administration in the RVM thirty minutes after IM cocktail, FIGS. 7A-7B): increase in facial response threshold

Compound: CN1CC=C(c2c[nH]c3ccc(NC(=N)c4cccs4)cc23)CC1 [cpd 1]
induction of tactile allodynia after continuous infusion (rats [4]): do not induce tactile allodynia | attenuation of tactile allodynia in the migraine model (rats [5]; after oral administration, Appendix A-4): attenuated tactile allodynia | oral activity in the migraine model (rats [5]; oral, Appendix A-3): orally active

induction of tactile allodynia after continuous infusion (rats [4]): induces tactile allodynia
Compound: CNS(=O)(=O)Cc1ccc2[nH]cc(CCN(C)C)c2c1 [sumatriptan]
paw withdrawal threshold versus rats with dural IM cocktail but no compound (Male Sprague Dawley rats [2]; 0.6 mg/kg s.c. ten minutes prior to IM cocktail, FIG. 8): increase in paw withdrawal threshold | development of tactile hyperesthesia (paw withdrawal thresholds) (Male Sprague Dawley rats [2]; sumatriptan succinate 1 mg/kg s.c. five minutes prior to dural IM cocktail, two hours after dural treatment, FIG. 10): prevent or ameliorate the development of tactile hyperesthesia | facial response threshold versus rats with dural IM cocktail but no compound (Male Sprague Dawley rats [3]; systemic administration thirty minutes after IM cocktail, FIGS. 6A-6B): increase in facial response threshold

Source: patent US20100166660A1, “METHODS OF MODELING MIGRAINE PAIN AND IDENTIFYING CANDIDATE COMPOUNDS FOR THE TREATMENT OF MIGRAINE” (priority 2007, published 2010)
